Entries after “also recorded” stand apart in the source; their conditions may differ.
Experiments:
[1] = Molar extinction coefficient (UV absorption); assay type: physicochemical; details: at λmax 306 nm in water
[2] = Compatibility with anionic surfactant in formulation; assay type: physicochemical; details: sodium lauryl ether sulphate based transparent shampoo / transparent bathing bar; N,N-dimethyl ammonium)-2-hydroxy propane-1-sulph
Experimental: The major ingredients were mixed with heating to 50° C. until a uniform homogeneous mixture was formed. The resulting mixture was then cooled to room temperature with continuous stirring. The required chelating agent, colour, perfume were added. The viscosity was adjusted to 2500 cps with sodium chloride.
All ingredients were heated together under stirring to 70° C. till the reaction mass became homogenous and transparent. The reaction mass was cooled to 40° C. and the required amounts of chelating agents, perfume and colour were added. The molten mass was cast in moulds of desired shape to yield transparent bathing bar.

## COc1ccc(C=CC(=O)NCCC[N+](C)(C)CC(O)CS(=O)(=O)[O-])cc1 (centres unmarked) [Example I, 3-(N-p-Methoxy Cinnamidopropyl, N,N-Dimethyl Ammonium)-2-hydroxy Propane-1-sulphonate]
[1]
  molar extinction coefficient, ∈: 24,000
[2]
  compatibility with anionic surfactant: completely compatible; also recorded: total compatibility

Source: patent publication US6531628B1, “Substantive water-soluble 2-hydroxy sulfobetaines of cinnamidoalkylamines” (Galaxy Surfactants Ltd., priority 2001, dated 2003)
